Calls of active or inactive are those of the source.
Legend:
[1] = tested on: Vero; experiment: Vero cell toxicity, dose response, cytotoxicity control, plate reader, cherry-pick samples (AID 687020); assay type: functional, cell-based; conditions: Chlorocebus sabaeus
[2] = biological target: Endoplasmic reticulum aminopeptidase 1 (Homo sapiens, UniProt Q9NZ08); experiment: ERAP1 aminopeptidase inhibitors, dose response, biochemical, cherry-pick, set 2, plate reader (AID 743314)
[3] = T. cruzi growth inhibition in host cells, dose response, cell-based, plate reader, dry powder, set 2 (AID 652275); assay type: functional
[4] = Late stage assay provider results from the probe development effort to identify selective inhibitors of heat shock protein 90 (HSP90): Absorbance-based cell proliferation assay in SKBR3 cells.; assay type: functional; conditions: SK-BR-3
[5] = Late stage assay provider results from the probe development effort to identify selective inhibitors of heat shock protein 90 (HSP90): Absorbance-based cell proliferation assay in MCF7 cells.; assay type: functional
[6] = biological target: Protein disulfide-isomerase (Homo sapiens, UniProt P07237); experiment: PDI inhibitors, insulin turbidity readout, confirmation, biochemical, dry powder samples, set 2 (AID 652146)
[7] = Counterscreen for activators of the function of SWI/SNF related, matrix associated, actin dependent regulator of chromatin, subfamily a, member 2 (SMARCA2, BRM): Luminescence-based cell-based high throughput dose response assay to identify non-selective compounds using the VP16 reporter assay.; assay type: functional
[8] = biological target: SWI/SNF-related matrix-associated actin-dependent regulator of chromatin subfamily A member 2 (Homo sapiens, UniProt P51531); experiment: Luminescence-based cell-based high throughput dose response assay to identify activators of the function of SWI/SNF related, matrix associated, actin dependent regulator of chromatin, subfamily a, member 2 (SMARCA2, BRM).; assay type: functional
[9] = biological target: T1, Caspase-6 (Homo sapiens, UniProt P55212); experiment: human caspase-6 inhibitors, dose response, biochemical, VEID-R110 fluorescence, cherry-pick (AID 720632)
T1 sequence (P55212 whole entry): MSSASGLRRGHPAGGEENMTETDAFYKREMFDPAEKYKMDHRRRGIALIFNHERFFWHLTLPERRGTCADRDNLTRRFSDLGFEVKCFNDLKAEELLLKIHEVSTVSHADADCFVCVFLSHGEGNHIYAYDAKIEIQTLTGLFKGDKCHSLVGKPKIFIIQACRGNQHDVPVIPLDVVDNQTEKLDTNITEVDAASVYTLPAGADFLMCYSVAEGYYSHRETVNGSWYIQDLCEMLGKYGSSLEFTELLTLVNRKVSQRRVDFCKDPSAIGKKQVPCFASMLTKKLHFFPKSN

[10] = biological target: T2, Sentrin-specific protease 8 (Homo sapiens, UniProt Q96LD8); assay type: functional
T2 sequence (Q96LD8 whole entry): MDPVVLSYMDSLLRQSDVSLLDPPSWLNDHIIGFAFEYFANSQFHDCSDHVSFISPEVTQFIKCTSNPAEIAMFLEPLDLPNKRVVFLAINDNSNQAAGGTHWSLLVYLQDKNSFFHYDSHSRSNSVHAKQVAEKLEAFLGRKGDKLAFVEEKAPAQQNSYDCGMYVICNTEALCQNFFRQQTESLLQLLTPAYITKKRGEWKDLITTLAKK

[11] = biological target: T3, Replicative DNA helicase DnaB (Mycobacterium tuberculosis, UniProt P9WMR3); experiment: DnaB intein splicing inhibitors, dose response, biochemical, cell-free fluorescence (AID 449749); assay type: functional
T3 sequence (P9WMR3 whole entry): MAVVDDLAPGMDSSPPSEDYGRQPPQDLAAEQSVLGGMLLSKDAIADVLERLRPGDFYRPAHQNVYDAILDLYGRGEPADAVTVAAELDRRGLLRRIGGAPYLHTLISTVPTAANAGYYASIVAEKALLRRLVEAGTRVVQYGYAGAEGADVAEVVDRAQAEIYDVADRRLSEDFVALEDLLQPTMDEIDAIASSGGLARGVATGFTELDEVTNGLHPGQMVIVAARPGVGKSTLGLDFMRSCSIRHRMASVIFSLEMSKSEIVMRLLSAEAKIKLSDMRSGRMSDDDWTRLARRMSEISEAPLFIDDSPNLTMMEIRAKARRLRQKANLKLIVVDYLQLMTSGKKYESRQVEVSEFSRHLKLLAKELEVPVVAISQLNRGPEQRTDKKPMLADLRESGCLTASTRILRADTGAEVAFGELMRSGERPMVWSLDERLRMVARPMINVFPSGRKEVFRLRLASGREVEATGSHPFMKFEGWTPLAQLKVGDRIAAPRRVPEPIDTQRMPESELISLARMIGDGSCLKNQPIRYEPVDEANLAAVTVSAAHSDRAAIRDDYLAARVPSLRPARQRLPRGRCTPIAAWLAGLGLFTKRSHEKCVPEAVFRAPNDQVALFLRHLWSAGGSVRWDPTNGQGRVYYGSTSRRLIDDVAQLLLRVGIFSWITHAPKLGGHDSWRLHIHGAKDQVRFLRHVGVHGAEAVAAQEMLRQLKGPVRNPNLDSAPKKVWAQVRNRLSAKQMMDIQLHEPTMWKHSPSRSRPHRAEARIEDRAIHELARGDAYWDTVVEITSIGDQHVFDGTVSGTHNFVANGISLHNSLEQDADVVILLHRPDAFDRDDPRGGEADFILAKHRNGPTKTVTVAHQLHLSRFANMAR

[12] = biological target: T2, Sentrin-specific protease 8; assay type: functional; remark: listed apart in the source
[13] = biological target: T4, Caspase-3 (Homo sapiens, UniProt P42574); experiment: Dose-response confirmation of uHTS inhibitor hits of Sentrin-Specific Protease 8 in a Caspase-3 Fluorescence assay.; assay type: functional
T4 sequence (P42574 whole entry): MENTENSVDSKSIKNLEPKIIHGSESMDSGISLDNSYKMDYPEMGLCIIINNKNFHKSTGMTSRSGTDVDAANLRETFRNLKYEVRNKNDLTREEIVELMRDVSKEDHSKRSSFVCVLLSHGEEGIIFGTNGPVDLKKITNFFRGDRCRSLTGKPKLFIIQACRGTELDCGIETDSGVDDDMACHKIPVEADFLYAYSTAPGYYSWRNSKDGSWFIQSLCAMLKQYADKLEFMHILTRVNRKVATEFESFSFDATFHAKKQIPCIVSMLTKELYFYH

[14] = biological target: T5, Protein RecA (Mycobacterium tuberculosis, UniProt P9WHJ3); experiment: Fluorescence Cell-Free Homogeneous Dose Retest to Identify Inhibitors of RecA-Intein Splicing Activity. [Related pubchem assays (depositor defined):AID2097, AID2223, AID489010, AID492950]; assay type: functional
T5 sequence (P9WHJ3 whole entry): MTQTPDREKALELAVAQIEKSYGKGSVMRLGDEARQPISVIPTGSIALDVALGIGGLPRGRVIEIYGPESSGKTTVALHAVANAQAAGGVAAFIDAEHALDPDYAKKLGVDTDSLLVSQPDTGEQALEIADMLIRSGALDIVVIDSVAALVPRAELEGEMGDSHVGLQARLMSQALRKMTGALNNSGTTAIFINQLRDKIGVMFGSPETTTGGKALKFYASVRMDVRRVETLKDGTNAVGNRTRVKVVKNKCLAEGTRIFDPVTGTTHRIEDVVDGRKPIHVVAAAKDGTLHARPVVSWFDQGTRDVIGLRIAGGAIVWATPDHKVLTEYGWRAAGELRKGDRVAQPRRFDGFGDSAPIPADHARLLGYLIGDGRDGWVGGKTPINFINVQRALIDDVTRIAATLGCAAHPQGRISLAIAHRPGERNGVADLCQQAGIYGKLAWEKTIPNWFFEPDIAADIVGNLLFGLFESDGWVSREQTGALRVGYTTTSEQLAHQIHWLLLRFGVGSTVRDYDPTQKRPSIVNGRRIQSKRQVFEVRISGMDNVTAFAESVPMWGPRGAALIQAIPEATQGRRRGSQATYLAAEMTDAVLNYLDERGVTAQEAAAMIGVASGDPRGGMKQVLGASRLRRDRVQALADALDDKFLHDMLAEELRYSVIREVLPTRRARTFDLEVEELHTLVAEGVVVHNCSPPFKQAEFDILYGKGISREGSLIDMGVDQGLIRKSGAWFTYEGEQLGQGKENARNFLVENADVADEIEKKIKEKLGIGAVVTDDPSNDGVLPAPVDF

Sequence of Endoplasmic reticulum aminopeptidase 1 (Q9NZ08 whole entry): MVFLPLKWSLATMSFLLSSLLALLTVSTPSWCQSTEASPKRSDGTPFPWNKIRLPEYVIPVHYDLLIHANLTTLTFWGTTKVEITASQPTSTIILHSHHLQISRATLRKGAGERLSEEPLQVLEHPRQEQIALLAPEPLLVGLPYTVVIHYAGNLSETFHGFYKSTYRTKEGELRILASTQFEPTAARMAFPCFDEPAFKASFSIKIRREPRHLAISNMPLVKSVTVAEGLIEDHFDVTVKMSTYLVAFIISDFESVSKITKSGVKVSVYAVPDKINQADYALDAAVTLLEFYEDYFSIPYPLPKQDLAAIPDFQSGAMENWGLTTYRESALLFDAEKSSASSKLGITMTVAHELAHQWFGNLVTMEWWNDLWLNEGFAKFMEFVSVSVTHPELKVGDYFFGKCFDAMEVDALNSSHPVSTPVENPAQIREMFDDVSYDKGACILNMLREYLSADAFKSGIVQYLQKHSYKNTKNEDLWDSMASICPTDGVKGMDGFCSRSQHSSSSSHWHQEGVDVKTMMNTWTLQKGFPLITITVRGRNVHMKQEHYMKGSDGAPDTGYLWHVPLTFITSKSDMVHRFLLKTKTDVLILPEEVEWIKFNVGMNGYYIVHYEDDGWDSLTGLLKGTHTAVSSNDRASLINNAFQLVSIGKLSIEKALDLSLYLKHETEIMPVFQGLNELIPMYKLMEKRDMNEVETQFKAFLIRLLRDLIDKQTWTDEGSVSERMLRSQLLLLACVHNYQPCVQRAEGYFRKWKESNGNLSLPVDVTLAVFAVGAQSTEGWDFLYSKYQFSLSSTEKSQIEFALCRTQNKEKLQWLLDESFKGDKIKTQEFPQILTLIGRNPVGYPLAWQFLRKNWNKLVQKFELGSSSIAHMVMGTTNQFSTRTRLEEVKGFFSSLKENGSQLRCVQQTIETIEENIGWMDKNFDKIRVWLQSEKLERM
Sequence of SWI/SNF-related matrix-associated actin-dependent regulator of chromatin subfamily A member 2 (P51531 whole entry): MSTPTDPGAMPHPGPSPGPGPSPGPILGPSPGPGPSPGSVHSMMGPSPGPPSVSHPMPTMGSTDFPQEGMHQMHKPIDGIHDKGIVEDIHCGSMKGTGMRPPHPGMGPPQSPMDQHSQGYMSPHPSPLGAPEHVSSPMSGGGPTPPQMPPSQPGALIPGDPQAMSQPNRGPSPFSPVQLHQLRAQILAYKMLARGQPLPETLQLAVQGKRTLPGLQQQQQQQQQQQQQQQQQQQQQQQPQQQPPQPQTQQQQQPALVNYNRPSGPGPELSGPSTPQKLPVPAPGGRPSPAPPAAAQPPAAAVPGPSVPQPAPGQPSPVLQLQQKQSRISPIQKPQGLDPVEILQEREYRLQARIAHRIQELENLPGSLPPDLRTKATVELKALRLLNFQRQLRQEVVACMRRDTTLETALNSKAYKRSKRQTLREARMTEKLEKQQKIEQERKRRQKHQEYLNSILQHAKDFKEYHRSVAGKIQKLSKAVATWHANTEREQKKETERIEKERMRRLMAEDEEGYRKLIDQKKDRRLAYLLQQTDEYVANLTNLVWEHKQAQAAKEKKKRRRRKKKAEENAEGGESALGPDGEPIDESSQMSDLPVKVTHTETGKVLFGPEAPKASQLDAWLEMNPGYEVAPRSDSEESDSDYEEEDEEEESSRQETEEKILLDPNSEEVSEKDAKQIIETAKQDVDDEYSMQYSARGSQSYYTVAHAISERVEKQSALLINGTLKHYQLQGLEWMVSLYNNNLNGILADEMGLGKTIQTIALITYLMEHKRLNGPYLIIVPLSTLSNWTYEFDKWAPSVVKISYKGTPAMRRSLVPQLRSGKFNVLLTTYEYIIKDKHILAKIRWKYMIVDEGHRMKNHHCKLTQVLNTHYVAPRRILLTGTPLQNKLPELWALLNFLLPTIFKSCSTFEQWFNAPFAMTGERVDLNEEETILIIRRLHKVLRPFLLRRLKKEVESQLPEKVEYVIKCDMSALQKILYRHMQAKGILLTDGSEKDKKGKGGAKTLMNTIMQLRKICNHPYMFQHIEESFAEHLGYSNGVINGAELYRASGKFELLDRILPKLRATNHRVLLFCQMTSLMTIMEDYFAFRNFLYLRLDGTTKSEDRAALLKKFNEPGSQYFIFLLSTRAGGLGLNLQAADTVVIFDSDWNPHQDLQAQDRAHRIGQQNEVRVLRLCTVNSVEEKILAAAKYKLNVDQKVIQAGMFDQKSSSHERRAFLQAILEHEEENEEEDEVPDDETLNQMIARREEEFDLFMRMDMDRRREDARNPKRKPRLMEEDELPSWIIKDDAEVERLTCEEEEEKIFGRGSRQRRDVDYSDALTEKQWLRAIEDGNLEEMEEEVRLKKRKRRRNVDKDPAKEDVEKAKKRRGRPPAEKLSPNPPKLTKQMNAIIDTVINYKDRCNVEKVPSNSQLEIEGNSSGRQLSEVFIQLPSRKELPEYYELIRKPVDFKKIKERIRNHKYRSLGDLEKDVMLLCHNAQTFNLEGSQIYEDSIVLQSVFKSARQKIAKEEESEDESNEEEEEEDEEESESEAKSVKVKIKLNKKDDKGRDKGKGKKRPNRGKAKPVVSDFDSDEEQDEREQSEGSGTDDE
Sequence of Protein disulfide-isomerase (P07237 whole entry): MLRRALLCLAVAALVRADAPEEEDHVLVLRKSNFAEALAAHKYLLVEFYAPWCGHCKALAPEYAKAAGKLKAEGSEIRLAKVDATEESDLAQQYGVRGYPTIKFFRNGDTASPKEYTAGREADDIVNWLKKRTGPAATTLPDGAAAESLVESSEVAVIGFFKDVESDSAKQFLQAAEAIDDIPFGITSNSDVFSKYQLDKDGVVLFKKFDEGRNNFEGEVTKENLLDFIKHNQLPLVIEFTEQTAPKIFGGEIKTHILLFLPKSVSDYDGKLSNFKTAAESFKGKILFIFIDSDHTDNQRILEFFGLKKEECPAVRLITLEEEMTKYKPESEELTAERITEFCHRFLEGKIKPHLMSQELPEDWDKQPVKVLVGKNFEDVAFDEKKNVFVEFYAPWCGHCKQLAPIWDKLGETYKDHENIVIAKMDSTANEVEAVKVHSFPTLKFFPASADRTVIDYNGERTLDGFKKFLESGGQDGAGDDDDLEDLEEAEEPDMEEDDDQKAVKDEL

Question: With `CC1CCC(CN2CCN=C2Nc2ccccc2)CC1` (centres undefined) as the compound, how does the AC50 [1] read?
Answer: 31.6 µM (active)

Question: With `COCCCn1c(C(=O)N2CCOCC2)cc2c(=O)n3ccccc3nc21` as the compound, how does the AC50 [2] read?
Answer: 9.81 µM (active)

Question: With `CC(C)N1C[C@@H](CN(C)Cc2ccc(Cl)cc2)Oc2c(NC(=O)c3cn(C)cn3)cccc2C1=O` as the compound, how does the AC50 [3] read?
Answer: 0.0198 µM (active)

Question: For `CCOc1ccc(NC(=O)c2cc(=O)c(OC)c[nH]2)cc1`, which IC50 [4] is on record?
Answer: > 100 µM (inactive)

Question: And the IC50 [5]?
Answer: > 100 µM (inactive)

Question: Which AC50 [6] does the source give for `CCOC(=O)C1(CCOc2ccccc2)CCN(Cc2ccc(O)cc2)CC1` here?
Answer: 10 µM (active)

Question: What does the source list for `COc1ccc(Br)c(C(=O)Nc2nc3ccccc3[nH]2)c1`?
Answer: EC50 [7]: > 91.1 µM (inactive); EC50 [8]: > 91.1 µM (inactive)

Question: What does the source list for `CCOC(=O)c1nn(-c2ccc(OC)cc2)c(=O)c2c(N)scc12`?
Answer: AC50 [9]: 34.3 µM (active); IC50 [10]: 6.99 µM (active); AC50 [11]: 23.2 µM (active); IC50 [12]: 5.63 µM (active); IC50 [13]: 23 µM (active); EC50 [14]: 1.59 µM (active)
